# Results published in patent US10494332B2, “Protein tyrosine phosphatases or SHP2 inhibitors and uses thereof” (Indiana University Research and Technology Corporation, priority 2015, dated 2019).
# pIC50, pKi: −log10 of the molar value. Values joined by “and” are separate entries in the source; they are usually repeats but may differ in a detail not shown here. Equal values may be shown once.
# Target: PTPβ (Homo sapiens, UniProt P23467)
# Experiment: PTP inhibition assay (pNPP)
# Format: biochemical
# Conditions: not given
row,SMILES,pIC50
1,O=C(Nc1ccc2nc(C(F)(F)F)[nH]c2c1)C(c1ccccc1)S(=O)(=O)O (stereo not drawn) [Compound L319M54],< 3.70
2,O=C(Nc1ccc(N2CCOCC2)cc1)C(c1ccccc1)S(=O)(=O)O (stereo not drawn) [Compound L319M68],< 3.70
3,O=C(Nc1cnc2ccccc2c1)C(c1ccccc1)S(=O)(=O)O (stereo not drawn) [Compound L319M88],< 3.70
4,O=C(Nc1nc2ccccc2s1)C(c1ccccc1)S(=O)(=O)O (stereo not drawn) [Compound L319N15],< 3.70
5,O=C(C(c1ccccc1)S(=O)(=O)O)N1CCC(Cc2ccccc2)CC1 (stereo not drawn) [Compound L319N46],< 3.70

# Target: T1, PP5 (Homo sapiens, UniProt P53041)
# T1 sequence (P53041 1-499): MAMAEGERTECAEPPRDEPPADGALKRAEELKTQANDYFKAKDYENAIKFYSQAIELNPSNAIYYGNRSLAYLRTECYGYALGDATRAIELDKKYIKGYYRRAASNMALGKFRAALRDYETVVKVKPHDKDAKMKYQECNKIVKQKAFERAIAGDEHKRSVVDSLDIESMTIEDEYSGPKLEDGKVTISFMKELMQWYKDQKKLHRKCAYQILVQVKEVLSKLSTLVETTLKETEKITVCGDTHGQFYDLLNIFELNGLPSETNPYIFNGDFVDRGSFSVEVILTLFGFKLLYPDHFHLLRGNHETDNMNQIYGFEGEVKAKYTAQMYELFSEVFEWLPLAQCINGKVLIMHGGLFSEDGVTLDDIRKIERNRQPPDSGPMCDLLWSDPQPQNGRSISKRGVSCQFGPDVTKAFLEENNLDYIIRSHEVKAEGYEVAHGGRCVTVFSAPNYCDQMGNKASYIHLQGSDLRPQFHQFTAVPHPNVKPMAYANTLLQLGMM
# Experiment: Phosphatase inhibition assay (pNPP)
# Conditions: not given
row,SMILES,pIC50
1,O=C(Nc1ccc2nc(C(F)(F)F)[nH]c2c1)C(c1ccccc1)S(=O)(=O)O (stereo not drawn) [Compound L319M54],< 3.70
2,O=C(Nc1ccc(N2CCOCC2)cc1)C(c1ccccc1)S(=O)(=O)O (stereo not drawn) [Compound L319M68],< 3.70
3,O=C(Nc1cnc2ccccc2c1)C(c1ccccc1)S(=O)(=O)O (stereo not drawn) [Compound L319M88],< 3.70
4,O=C(Nc1nc2ccccc2s1)C(c1ccccc1)S(=O)(=O)O (stereo not drawn) [Compound L319N15],< 3.70
5,O=C(C(c1ccccc1)S(=O)(=O)O)N1CCC(Cc2ccccc2)CC1 (stereo not drawn) [Compound L319N46],< 3.70

# Target: T2, PTP1B (Homo sapiens, UniProt P18031)
# T2 sequence (P18031 1-435): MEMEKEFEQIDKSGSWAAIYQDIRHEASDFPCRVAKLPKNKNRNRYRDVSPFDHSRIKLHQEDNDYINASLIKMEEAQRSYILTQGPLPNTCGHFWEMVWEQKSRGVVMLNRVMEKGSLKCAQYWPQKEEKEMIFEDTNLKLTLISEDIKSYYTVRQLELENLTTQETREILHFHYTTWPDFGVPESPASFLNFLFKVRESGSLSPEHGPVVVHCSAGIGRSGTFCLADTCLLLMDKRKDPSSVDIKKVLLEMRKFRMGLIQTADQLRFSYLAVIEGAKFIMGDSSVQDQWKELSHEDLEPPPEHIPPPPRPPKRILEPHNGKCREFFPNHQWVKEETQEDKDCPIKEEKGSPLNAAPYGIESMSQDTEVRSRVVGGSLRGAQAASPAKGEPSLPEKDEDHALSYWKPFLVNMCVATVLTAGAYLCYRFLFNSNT
# Experiment: PTP inhibition assay (pNPP)
# Format: biochemical
# Conditions: pNPP at Km, pH 7.0, 25° C.
row,SMILES,pIC50
1,O=C(Nc1ccc2nc(C(F)(F)F)[nH]c2c1)C(c1ccccc1)S(=O)(=O)O (stereo not drawn) [Compound L319M54],< 3.70
2,O=C(Nc1ccc(N2CCOCC2)cc1)C(c1ccccc1)S(=O)(=O)O (stereo not drawn) [Compound L319M68],< 3.70
3,O=C(Nc1cnc2ccccc2c1)C(c1ccccc1)S(=O)(=O)O (stereo not drawn) [Compound L319M88],< 3.70
4,O=C(Nc1nc2ccccc2s1)C(c1ccccc1)S(=O)(=O)O (stereo not drawn) [Compound L319N15],< 3.70
5,O=C(C(c1ccccc1)S(=O)(=O)O)N1CCC(Cc2ccccc2)CC1 (stereo not drawn) [Compound L319N46],< 3.70

# Target: FAP1 (Homo sapiens, UniProt Q12923)
# Experiment: PTP inhibition assay (pNPP)
# Format: biochemical
# Conditions: pNPP at Km, pH 7.0, 25° C.; read-out: IC50 FAP1
# Sequence of FAP1 (Q12923 whole entry): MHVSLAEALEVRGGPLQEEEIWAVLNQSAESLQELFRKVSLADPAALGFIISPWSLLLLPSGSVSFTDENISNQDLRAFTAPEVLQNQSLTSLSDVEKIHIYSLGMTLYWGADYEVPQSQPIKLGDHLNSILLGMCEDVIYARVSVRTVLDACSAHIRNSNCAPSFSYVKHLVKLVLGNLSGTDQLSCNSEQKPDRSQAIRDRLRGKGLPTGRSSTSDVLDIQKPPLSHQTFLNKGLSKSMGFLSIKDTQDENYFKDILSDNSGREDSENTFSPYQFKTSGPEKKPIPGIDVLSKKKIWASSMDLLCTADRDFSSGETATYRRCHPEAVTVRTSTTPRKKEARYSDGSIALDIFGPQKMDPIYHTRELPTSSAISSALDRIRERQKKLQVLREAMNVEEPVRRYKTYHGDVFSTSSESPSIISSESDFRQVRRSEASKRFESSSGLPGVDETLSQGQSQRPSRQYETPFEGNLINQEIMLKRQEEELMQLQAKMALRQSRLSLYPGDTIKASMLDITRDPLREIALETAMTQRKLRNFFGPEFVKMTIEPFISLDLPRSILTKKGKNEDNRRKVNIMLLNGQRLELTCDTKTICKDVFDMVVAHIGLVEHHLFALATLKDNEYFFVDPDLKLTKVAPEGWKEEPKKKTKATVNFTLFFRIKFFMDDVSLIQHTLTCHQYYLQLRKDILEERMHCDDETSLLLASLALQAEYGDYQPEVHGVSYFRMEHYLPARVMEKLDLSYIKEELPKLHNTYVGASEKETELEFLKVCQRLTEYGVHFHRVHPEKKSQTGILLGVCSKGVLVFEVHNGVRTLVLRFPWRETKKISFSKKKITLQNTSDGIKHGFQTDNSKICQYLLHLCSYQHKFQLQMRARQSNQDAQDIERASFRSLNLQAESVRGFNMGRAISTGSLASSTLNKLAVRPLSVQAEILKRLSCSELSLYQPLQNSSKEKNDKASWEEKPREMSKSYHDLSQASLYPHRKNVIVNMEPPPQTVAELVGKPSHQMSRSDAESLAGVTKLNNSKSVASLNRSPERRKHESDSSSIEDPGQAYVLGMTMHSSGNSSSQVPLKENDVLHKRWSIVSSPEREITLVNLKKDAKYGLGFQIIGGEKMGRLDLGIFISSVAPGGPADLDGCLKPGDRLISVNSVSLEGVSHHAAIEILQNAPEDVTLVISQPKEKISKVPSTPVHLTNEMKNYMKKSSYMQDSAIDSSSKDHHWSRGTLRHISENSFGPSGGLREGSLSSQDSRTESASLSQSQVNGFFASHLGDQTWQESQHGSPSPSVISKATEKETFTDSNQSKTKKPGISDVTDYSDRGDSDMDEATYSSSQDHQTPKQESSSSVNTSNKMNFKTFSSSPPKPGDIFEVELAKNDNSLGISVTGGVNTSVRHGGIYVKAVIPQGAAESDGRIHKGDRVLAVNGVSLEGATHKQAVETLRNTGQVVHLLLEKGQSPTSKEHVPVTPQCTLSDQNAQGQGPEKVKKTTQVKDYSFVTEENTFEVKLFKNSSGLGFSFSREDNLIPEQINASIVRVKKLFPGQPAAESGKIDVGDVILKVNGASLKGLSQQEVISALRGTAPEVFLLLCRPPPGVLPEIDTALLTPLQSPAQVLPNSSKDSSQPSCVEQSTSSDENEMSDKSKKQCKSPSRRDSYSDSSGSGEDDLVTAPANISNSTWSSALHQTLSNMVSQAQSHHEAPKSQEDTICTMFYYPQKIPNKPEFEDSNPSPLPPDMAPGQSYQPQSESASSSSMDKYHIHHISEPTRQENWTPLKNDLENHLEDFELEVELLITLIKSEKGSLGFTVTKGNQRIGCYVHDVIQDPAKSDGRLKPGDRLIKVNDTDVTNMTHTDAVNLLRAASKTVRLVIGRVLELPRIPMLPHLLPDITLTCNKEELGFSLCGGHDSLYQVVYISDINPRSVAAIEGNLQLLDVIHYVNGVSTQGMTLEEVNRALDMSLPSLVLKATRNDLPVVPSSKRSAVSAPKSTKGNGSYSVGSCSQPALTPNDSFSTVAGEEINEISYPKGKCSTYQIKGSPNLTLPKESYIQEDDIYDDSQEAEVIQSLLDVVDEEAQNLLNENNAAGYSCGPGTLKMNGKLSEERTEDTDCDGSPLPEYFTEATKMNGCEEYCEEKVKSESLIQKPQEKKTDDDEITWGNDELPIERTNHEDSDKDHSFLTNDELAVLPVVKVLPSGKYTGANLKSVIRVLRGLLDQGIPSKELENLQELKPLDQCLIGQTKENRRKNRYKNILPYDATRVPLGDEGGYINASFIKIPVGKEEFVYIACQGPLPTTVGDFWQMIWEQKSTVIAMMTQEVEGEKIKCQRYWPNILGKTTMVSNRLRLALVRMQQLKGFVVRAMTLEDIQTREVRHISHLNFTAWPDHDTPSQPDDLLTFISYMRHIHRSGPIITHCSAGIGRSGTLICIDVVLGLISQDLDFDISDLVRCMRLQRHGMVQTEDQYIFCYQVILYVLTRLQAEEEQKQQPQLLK
row,SMILES,pIC50
1,O=C(Nc1ccc2nc(C(F)(F)F)[nH]c2c1)C(c1ccccc1)S(=O)(=O)O (stereo not drawn) [Compound L319M54],3.74 and < 4.00
2,O=C(Nc1ccc(N2CCOCC2)cc1)C(c1ccccc1)S(=O)(=O)O (stereo not drawn) [Compound L319M68],< 3.70
3,O=C(Nc1cnc2ccccc2c1)C(c1ccccc1)S(=O)(=O)O (stereo not drawn) [Compound L319M88],< 3.70
4,O=C(Nc1nc2ccccc2s1)C(c1ccccc1)S(=O)(=O)O (stereo not drawn) [Compound L319N15],4.47
5,O=C(C(c1ccccc1)S(=O)(=O)O)N1CCC(Cc2ccccc2)CC1 (stereo not drawn) [Compound L319N46],< 3.70

# Target: VHR (Homo sapiens, UniProt P51452)
# Experiment: PTP inhibition assay (pNPP)
# Format: biochemical
# Conditions: pNPP at Km, pH 7.0, 25° C.
# Sequence of VHR (P51452 whole entry): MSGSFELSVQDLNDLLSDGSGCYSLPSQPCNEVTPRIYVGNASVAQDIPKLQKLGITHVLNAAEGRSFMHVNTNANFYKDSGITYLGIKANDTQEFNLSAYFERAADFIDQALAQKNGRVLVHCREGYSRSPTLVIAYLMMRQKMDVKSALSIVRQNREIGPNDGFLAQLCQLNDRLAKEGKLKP
row,SMILES,pIC50
1,O=C(Nc1ccc2nc(C(F)(F)F)[nH]c2c1)C(c1ccccc1)S(=O)(=O)O (stereo not drawn) [Compound L319M54],< 3.70
2,O=C(Nc1ccc(N2CCOCC2)cc1)C(c1ccccc1)S(=O)(=O)O (stereo not drawn) [Compound L319M68],< 3.70
3,O=C(Nc1cnc2ccccc2c1)C(c1ccccc1)S(=O)(=O)O (stereo not drawn) [Compound L319M88],< 3.70
4,O=C(Nc1nc2ccccc2s1)C(c1ccccc1)S(=O)(=O)O (stereo not drawn) [Compound L319N15],< 3.70
5,O=C(C(c1ccccc1)S(=O)(=O)O)N1CCC(Cc2ccccc2)CC1 (stereo not drawn) [Compound L319N46],< 3.70

# Target: mPTPA (Mycobacterium tuberculosis, UniProt P9WIA1)
# Experiment: biochemical
# Conditions: not given
# Sequence of mPTPA (P9WIA1 whole entry): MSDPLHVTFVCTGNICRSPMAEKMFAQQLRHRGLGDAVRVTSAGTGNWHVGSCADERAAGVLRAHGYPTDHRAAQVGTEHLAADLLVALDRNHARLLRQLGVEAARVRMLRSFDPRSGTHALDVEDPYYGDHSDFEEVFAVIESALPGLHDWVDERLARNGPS
row,SMILES,pKi
1,O=C(Nc1ccc(N2CCOCC2)cc1)C(c1ccccc1)S(=O)(=O)O (stereo not drawn) [Compound L319M68],6.89

# Same assay, conditions: IC50 mPTPA
row,SMILES,pIC50
1,O=C(Nc1ccc2nc(C(F)(F)F)[nH]c2c1)C(c1ccccc1)S(=O)(=O)O (stereo not drawn) [Compound L319M54],6.58 and 6.57
2,O=C(Nc1ccc(N2CCOCC2)cc1)C(c1ccccc1)S(=O)(=O)O (stereo not drawn) [Compound L319M68],6.60
3,O=C(Nc1cnc2ccccc2c1)C(c1ccccc1)S(=O)(=O)O (stereo not drawn) [Compound L319M88],6.84
4,O=C(Nc1nc2ccccc2s1)C(c1ccccc1)S(=O)(=O)O (stereo not drawn) [Compound L319N15],6.71
5,O=C(C(c1ccccc1)S(=O)(=O)O)N1CCC(Cc2ccccc2)CC1 (stereo not drawn) [Compound L319N46],< 3.70

# Target: T3, PEST (Homo sapiens, UniProt Q05209)
# T3 sequence (Q05209 1-780): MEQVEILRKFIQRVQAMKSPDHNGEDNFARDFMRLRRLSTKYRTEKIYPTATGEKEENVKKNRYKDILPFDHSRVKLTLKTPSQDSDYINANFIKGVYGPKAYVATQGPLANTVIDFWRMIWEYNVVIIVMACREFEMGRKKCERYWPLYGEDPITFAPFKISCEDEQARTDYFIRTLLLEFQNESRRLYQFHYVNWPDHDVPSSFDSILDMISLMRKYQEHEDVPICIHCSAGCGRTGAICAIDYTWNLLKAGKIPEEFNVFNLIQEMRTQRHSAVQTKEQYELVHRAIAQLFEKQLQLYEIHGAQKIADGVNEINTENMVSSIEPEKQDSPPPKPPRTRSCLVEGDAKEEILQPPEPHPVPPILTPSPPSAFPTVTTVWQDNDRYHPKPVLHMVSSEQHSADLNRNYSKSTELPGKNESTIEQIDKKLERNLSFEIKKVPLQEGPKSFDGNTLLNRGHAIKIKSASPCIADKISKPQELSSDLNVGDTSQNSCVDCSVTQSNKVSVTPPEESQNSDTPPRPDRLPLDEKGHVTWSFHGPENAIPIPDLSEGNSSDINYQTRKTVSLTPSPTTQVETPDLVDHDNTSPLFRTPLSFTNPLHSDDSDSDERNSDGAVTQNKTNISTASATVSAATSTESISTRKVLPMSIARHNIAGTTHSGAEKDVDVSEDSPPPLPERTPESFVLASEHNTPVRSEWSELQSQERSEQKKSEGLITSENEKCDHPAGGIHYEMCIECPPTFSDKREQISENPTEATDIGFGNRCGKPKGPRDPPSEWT
# Experiment: PTP inhibition assay (pNPP)
# Format: biochemical
# Conditions: pNPP at Km, pH 7.0, 25° C.; read-out: IC50 PEST
row,SMILES,pIC50
1,O=C(Nc1ccc2nc(C(F)(F)F)[nH]c2c1)C(c1ccccc1)S(=O)(=O)O (stereo not drawn) [Compound L319M54],< 3.70
2,O=C(Nc1ccc(N2CCOCC2)cc1)C(c1ccccc1)S(=O)(=O)O (stereo not drawn) [Compound L319M68],< 3.70
3,O=C(Nc1cnc2ccccc2c1)C(c1ccccc1)S(=O)(=O)O (stereo not drawn) [Compound L319M88],< 3.70
4,O=C(Nc1nc2ccccc2s1)C(c1ccccc1)S(=O)(=O)O (stereo not drawn) [Compound L319N15],4.36
5,O=C(C(c1ccccc1)S(=O)(=O)O)N1CCC(Cc2ccccc2)CC1 (stereo not drawn) [Compound L319N46],< 3.70

# Target: T4, TcPTP (Homo sapiens, UniProt P17706)
# T4 sequence (P17706 1-415): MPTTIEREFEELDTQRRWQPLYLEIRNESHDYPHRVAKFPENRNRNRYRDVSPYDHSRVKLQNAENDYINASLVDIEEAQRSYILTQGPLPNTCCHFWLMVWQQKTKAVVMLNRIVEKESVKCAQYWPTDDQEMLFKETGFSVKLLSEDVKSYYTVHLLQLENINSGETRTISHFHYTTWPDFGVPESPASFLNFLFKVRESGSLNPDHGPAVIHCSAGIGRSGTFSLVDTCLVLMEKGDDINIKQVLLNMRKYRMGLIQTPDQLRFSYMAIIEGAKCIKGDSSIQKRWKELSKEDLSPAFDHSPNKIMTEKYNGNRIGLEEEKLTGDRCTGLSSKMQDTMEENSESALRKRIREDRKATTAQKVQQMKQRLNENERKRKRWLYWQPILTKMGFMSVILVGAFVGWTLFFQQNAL
# Experiment: PTP inhibition assay (pNPP)
# Format: biochemical
# Conditions: pNPP at Km, pH 7.0, 25° C.; read-out: IC50 TcPTP
row,SMILES,pIC50
1,O=C(Nc1ccc2nc(C(F)(F)F)[nH]c2c1)C(c1ccccc1)S(=O)(=O)O (stereo not drawn) [Compound L319M54],< 3.70
2,O=C(Nc1ccc(N2CCOCC2)cc1)C(c1ccccc1)S(=O)(=O)O (stereo not drawn) [Compound L319M68],< 3.70
3,O=C(Nc1cnc2ccccc2c1)C(c1ccccc1)S(=O)(=O)O (stereo not drawn) [Compound L319M88],< 3.70
4,O=C(Nc1nc2ccccc2s1)C(c1ccccc1)S(=O)(=O)O (stereo not drawn) [Compound L319N15],< 3.70
5,O=C(C(c1ccccc1)S(=O)(=O)O)N1CCC(Cc2ccccc2)CC1 (stereo not drawn) [Compound L319N46],< 3.70

# Target: TbPTP1 (Trypanosoma brucei brucei, UniProt Q38AT7)
# Experiment: PTP inhibition assay (pNPP)
# Format: biochemical
# Conditions: pNPP at Km, pH 7.0, 25° C.; read-out: IC50 TbPTP1
# Sequence of TbPTP1 (Q38AT7 entry or part of it): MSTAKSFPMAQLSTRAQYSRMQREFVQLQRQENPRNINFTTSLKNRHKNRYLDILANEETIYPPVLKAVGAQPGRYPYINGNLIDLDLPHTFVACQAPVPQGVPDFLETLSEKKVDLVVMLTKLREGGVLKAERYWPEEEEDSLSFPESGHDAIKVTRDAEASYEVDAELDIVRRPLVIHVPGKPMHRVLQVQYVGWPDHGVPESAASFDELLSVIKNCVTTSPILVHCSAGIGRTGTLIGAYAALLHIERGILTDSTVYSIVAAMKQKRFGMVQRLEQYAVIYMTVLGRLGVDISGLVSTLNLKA
row,SMILES,pIC50
1,O=C(Nc1ccc2nc(C(F)(F)F)[nH]c2c1)C(c1ccccc1)S(=O)(=O)O (stereo not drawn) [Compound L319M54],< 3.70
2,O=C(Nc1ccc(N2CCOCC2)cc1)C(c1ccccc1)S(=O)(=O)O (stereo not drawn) [Compound L319M68],< 3.70
3,O=C(Nc1cnc2ccccc2c1)C(c1ccccc1)S(=O)(=O)O (stereo not drawn) [Compound L319M88],< 3.70
4,O=C(Nc1nc2ccccc2s1)C(c1ccccc1)S(=O)(=O)O (stereo not drawn) [Compound L319N15],< 3.70
5,O=C(C(c1ccccc1)S(=O)(=O)O)N1CCC(Cc2ccccc2)CC1 (stereo not drawn) [Compound L319N46],< 3.70

# Target: PTPε (Homo sapiens, UniProt P23469)
# Experiment: PTP inhibition assay (pNPP)
# Format: biochemical
# Conditions: not given
# Sequence of PTPε (P23469 20-700): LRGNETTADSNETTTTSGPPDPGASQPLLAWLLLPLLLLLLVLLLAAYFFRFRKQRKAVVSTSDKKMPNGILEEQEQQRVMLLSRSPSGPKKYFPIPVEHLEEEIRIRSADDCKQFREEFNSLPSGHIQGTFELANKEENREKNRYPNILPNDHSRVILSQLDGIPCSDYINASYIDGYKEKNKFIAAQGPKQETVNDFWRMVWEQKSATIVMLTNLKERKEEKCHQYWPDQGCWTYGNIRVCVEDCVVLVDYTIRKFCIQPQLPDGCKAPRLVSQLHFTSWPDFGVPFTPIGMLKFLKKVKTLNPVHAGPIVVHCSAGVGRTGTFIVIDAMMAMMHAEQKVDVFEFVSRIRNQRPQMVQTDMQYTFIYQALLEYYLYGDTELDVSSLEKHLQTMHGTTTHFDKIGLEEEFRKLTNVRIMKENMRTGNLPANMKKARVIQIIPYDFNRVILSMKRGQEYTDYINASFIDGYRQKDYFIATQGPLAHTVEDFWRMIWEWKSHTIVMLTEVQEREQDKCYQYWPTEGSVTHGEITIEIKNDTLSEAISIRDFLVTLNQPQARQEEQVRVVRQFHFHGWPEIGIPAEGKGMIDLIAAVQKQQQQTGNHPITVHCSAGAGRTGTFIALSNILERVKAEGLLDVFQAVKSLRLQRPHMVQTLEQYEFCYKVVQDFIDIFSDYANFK
row,SMILES,pIC50
1,O=C(Nc1ccc2nc(C(F)(F)F)[nH]c2c1)C(c1ccccc1)S(=O)(=O)O (stereo not drawn) [Compound L319M54],< 3.70
2,O=C(Nc1ccc(N2CCOCC2)cc1)C(c1ccccc1)S(=O)(=O)O (stereo not drawn) [Compound L319M68],< 3.70
3,O=C(Nc1cnc2ccccc2c1)C(c1ccccc1)S(=O)(=O)O (stereo not drawn) [Compound L319M88],< 3.70
4,O=C(Nc1nc2ccccc2s1)C(c1ccccc1)S(=O)(=O)O (stereo not drawn) [Compound L319N15],< 3.70
5,O=C(C(c1ccccc1)S(=O)(=O)O)N1CCC(Cc2ccccc2)CC1 (stereo not drawn) [Compound L319N46],< 3.70
